{"source": "paper PMC2735267", "about": "(Neuropharmacology, 2009)", "key": {"β2*-nAChR [1]": {"target": "β2*-nAChR (Mus musculus, UniProt O70174+Q9ERK7)", "sequence (O70174 31-629)": "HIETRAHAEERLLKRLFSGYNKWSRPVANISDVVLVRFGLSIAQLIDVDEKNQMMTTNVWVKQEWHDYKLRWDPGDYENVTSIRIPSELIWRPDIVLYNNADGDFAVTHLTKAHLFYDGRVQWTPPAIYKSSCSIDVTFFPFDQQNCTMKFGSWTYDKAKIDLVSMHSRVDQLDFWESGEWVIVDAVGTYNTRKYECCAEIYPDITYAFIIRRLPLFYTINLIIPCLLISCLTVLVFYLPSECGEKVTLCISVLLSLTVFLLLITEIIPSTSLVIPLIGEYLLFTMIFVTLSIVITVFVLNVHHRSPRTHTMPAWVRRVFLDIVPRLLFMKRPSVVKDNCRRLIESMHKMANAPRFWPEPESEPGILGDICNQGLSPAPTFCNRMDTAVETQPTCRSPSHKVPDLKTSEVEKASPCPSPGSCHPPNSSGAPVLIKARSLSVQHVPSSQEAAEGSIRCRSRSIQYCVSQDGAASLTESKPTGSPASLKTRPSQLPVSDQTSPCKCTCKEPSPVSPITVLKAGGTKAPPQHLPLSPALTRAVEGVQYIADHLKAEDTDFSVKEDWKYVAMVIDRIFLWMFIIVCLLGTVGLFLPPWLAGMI", "sequence (Q9ERK7 26-501)": "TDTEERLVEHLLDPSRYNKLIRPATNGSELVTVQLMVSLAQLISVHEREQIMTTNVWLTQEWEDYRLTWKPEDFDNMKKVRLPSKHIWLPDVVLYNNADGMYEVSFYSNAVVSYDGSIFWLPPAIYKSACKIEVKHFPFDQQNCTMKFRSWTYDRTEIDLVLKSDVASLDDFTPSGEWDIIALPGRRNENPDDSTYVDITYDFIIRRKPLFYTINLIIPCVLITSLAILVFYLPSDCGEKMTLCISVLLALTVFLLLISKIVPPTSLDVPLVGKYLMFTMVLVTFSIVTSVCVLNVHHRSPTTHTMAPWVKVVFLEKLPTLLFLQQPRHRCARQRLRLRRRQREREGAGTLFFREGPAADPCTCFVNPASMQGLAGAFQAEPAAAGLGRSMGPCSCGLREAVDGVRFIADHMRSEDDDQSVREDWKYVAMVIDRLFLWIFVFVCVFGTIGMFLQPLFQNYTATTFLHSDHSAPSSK", "assay": "biochemical", "type": "binding, C57BL/6J mice"}, "α4β2* receptors": {"target": "α4β2* receptors", "conditions": "read-out: Ki α4β2* receptors in rat brain; cited from earlier work"}, "[2]": {"system": "[125I]epibatidine binding sites (β2*- and β4*-nAChR)", "parameters": "species or system C57BL/6J mice", "conditions": "inferior colliculus, wild-type"}, "[3H]dopamine release": {"system": "[3H]dopamine release", "conditions": "read-out: EC50 [3H]dopamine release; cited from earlier work"}, "β4*-nAChR [3]": {"system": "β4*-nAChR", "conditions": "ref Luetje and Patrick, 1991; cited from earlier work"}, "[4]": {"conditions": "rats; ref Sloan et al., 1988; cited from earlier work"}, "α7* receptors": {"target": "α7* receptors", "conditions": "read-out: Ki α7* receptors in rat brain; cited from earlier work"}, "β4*-nAChR [5]": {"target": "β4*-nAChR (Mus musculus, UniProt Q8R493+Q8R4G9)", "sequence (Q8R493 21-495)": "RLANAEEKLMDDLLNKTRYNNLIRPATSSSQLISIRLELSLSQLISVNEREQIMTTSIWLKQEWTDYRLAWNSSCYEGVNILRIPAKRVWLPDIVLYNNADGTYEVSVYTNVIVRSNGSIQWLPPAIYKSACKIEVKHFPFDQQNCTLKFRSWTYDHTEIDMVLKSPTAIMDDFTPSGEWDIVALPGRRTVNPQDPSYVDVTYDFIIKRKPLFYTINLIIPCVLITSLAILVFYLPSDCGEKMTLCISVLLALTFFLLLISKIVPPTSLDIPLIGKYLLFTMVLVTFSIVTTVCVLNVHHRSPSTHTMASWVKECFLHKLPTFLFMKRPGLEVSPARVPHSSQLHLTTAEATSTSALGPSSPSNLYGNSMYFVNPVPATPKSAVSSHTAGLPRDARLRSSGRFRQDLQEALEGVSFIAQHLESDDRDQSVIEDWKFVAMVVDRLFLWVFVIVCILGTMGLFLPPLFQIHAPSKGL", "sequence (Q8R4G9 26-499)": "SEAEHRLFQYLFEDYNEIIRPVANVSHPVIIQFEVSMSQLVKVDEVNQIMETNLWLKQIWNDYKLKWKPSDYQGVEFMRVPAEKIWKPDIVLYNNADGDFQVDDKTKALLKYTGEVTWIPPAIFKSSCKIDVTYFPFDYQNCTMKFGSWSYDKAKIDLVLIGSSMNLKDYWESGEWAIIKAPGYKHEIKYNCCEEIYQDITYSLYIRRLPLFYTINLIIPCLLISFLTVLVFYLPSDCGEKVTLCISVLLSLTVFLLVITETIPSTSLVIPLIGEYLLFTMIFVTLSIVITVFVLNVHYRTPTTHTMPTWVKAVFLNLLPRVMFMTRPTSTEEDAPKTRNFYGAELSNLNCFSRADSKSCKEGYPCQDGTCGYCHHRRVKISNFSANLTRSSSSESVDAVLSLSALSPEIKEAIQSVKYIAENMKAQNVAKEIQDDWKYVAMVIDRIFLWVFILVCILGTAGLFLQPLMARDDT", "assay": "biochemical", "type": "binding, C57BL/6J mice"}, "human α7": {"target": "human α7", "conditions": "read-out: Ki human α7; cited from earlier work"}, "α4β2-nAChR": {"system": "α4β2-nAChR", "conditions": "cited from earlier work"}, "human α7 nAChR": {"system": "human α7 nAChR", "conditions": "read-out: EC50 human α7 nAChR; cited from earlier work"}, "human α4β2": {"target": "human α4β2", "conditions": "read-out: Ki human α4β2; cited from earlier work"}, "β2*-nAChR [6]": {"system": "β2*-nAChR", "conditions": "ref Luetje and Patrick, 1991; cited from earlier work"}, "[7]": {"system": "[3H]noradrenaline release", "conditions": "read-out: EC50 [3H]noradrenaline release; cited from earlier work"}, "α7-nAChR": {"target": "α7-nAChR (Mus musculus, UniProt P49582)", "sequence (P49582 23-502)": "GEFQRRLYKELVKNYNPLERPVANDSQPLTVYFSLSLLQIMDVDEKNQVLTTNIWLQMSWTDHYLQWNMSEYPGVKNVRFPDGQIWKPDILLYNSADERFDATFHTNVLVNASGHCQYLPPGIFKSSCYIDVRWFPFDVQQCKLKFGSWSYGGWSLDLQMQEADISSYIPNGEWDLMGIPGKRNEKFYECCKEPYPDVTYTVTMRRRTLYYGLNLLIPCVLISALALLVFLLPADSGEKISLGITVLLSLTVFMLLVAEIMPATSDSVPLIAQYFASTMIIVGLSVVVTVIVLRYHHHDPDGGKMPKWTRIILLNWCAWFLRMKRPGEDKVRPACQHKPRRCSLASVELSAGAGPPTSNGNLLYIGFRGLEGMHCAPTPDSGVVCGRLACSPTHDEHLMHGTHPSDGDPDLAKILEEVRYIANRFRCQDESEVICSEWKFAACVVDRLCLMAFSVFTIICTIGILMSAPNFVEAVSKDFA", "assay": "biochemical", "type": "binding, C57BL/6J mice"}, "human α3β4-nAChR": {"system": "human α3β4-nAChR", "conditions": "Xenopus oocytes; ref Abin-Carriquiry et al., 2006; cited from earlier work"}, "DBA/2J mice": {"system": "DBA/2J mice", "assay": "3-IC-induced hypothermia", "type": "in vivo, mouse"}, "C57BL/6J mice": {"system": "C57BL/6J mice", "assay": "3-IC-induced hypothermia", "type": "in vivo, mouse"}, "α7* nAChR binding sites": {"system": "α7* nAChR binding sites", "conditions": "ten days 2 mg/kg/h nicotine, DBA/2J, ref Pauly et al., 1991, cited from earlier work"}}, "note": "Like-named read-outs stand apart in the source and are kept apart here.", "data": [{"smiles": "O=c1cccc2n1C[C@@H]1CNC[C@H]2C1", "note": "[cytisine, reference compound]", "values": [{"measurement": "Ki", "setting": "β2*-nAChR [1]", "result": "0.00035 ± 1e-05", "unit": "µM"}, {"measurement": "Ki", "setting": "α4β2* receptors", "result": 0.0012, "unit": "µM"}, {"measurement": "difference in affinity for the two [125I]epibatidine binding sites", "setting": "[2]", "result": 60, "unit": "fold"}, {"measurement": "EC50", "setting": "[3H]dopamine release", "result": 0.28, "unit": "µM"}, {"measurement": "agonist efficacy at β4*-nAChR", "setting": "β4*-nAChR [3]", "result": "full agonist"}, {"measurement": "half-life", "setting": "[4]", "result": "longer half-life than nicotine"}, {"measurement": "Ki", "setting": "α7* receptors", "result": 8, "unit": "µM"}, {"measurement": "Ki", "setting": "β4*-nAChR [5]", "result": "0.0097 ± 0.0015", "unit": "µM"}, {"measurement": "Ki", "setting": "human α7", "result": 30, "unit": "µM"}, {"measurement": "EC50", "setting": "α4β2-nAChR; read-out: EC50 high agonist sensitive form of α4β2-nAChR", "result": 0.005, "unit": "µM"}, {"measurement": "EC50", "setting": "α4β2-nAChR; read-out: EC50 low agonist sensitive form of α4β2-nAChR", "result": 2, "unit": "µM"}, {"measurement": "EC50", "setting": "human α7 nAChR", "result": 83, "unit": "µM"}, {"measurement": "Ki", "setting": "human α4β2", "result": 0.0006, "unit": "µM"}, {"measurement": "agonist efficacy at β2*-nAChR", "setting": "β2*-nAChR [6]", "result": "partial agonist"}, {"measurement": "EC50", "setting": "[7]", "result": 7.4, "unit": "µM"}, {"measurement": "Ki", "setting": "α7-nAChR", "result": "1.58 ± 0.18", "unit": "µM"}]}, {"smiles": "O=c1c(Br)ccc2n1C[C@@H]1CNC[C@H]2C1", "note": "[3-bromocytisine]", "values": [{"measurement": "agonist efficacy at human α3β4-nAChR", "setting": "human α3β4-nAChR", "result": "full agonist"}]}, {"smiles": "CNC1(C)C2CCC(C2)C1(C)C", "note": "(stereo not drawn) [mecamylamine, reference compound]", "values": [{"measurement": "effect of mecamylamine alone on body temperature", "setting": "DBA/2J mice; 1 mg/kg ip, both mice strains", "result": "did not affect body temperature"}, {"measurement": "time of maximal hypothermia after 3-IC injection, mecamylamine pretreated", "setting": "DBA/2J mice; mecamylamine 1 mg/kg + 3-IC 0.2 mg/kg, DBA/2J", "result": 20, "unit": "min"}, {"measurement": "3-IC-induced hypothermia after mecamylamine pretreatment", "setting": "DBA/2J mice; mecamylamine 1 mg/kg ip 10 min before 3-IC 0.2 mg/kg, DBA/2J", "result": "1.13 ± 0.42", "unit": "°C"}, {"measurement": "blockade of 3-IC-induced hypothermia", "setting": "C57BL/6J mice; mecamylamine 1 mg/kg before 3-IC 0.2 mg/kg", "result": "complete"}, {"measurement": "3-IC-induced hypothermia after mecamylamine pretreatment", "setting": "C57BL/6J mice; mecamylamine 1 mg/kg ip 10 min before 3-IC 0.2 mg/kg", "result": "0.13 ± 0.09", "unit": "°C"}]}, {"smiles": "C[N+](C)(C)CCCCCC[N+](C)(C)C", "note": "[hexamethonium, reference compound]", "values": [{"measurement": "effect of hexamethonium alone on body temperature", "setting": "DBA/2J mice; 10 mg/kg ip, DBA/2J, vs saline", "result": "modest, but statistically significant, hypothermia"}, {"measurement": "maximal 3-IC-induced hypothermia after hexamethonium pretreatment", "setting": "DBA/2J mice; hexamethonium 10 mg/kg 10 min before 3-IC 0.2 mg/kg, DBA/2J", "result": "5.66 ± 0.45", "unit": "°C"}, {"measurement": "blockade of 3-IC-induced hypothermia", "setting": "DBA/2J mice; hexamethonium 10 mg/kg, DBA/2J", "result": 33, "unit": "%"}, {"measurement": "effect of hexamethonium alone on body temperature", "setting": "C57BL/6J mice; 10 mg/kg ip, vs saline", "result": "did not affect body temperature"}, {"measurement": "blockade of 3-IC-induced hypothermia", "setting": "C57BL/6J mice; hexamethonium 10 mg/kg", "result": 60, "unit": "%"}, {"measurement": "maximal 3-IC-induced hypothermia after hexamethonium pretreatment", "setting": "C57BL/6J mice; hexamethonium 10 mg/kg 10 min before 3-IC 0.2 mg/kg", "result": "3.75 ± 0.67", "unit": "°C"}]}, {"smiles": "CN1CCC[C@H]1c1cccnc1", "note": "[nicotine]", "values": [{"measurement": "difference in affinity for the two [125I]epibatidine binding sites", "setting": "[2]", "result": 20, "unit": "fold"}, {"measurement": "increase in [125I]α-bungarotoxin binding sites", "setting": "α7* nAChR binding sites; caudate putamen", "result": 14.2, "unit": "%"}, {"measurement": "increase in [125I]α-bungarotoxin binding sites", "setting": "α7* nAChR binding sites; dentate gyrus", "result": 12.6, "unit": "%"}, {"measurement": "increase in [125I]α-bungarotoxin binding sites", "setting": "α7* nAChR binding sites; hippocampus", "result": 33, "unit": "%"}, {"measurement": "increase in [125I]α-bungarotoxin binding sites", "setting": "α7* nAChR binding sites; medial habenula", "result": 22.6, "unit": "%"}, {"measurement": "increase in [125I]α-bungarotoxin binding sites", "setting": "α7* nAChR binding sites; substantia nigra", "result": 25.6, "unit": "%"}, {"measurement": "increase in [125I]α-bungarotoxin binding sites", "setting": "α7* nAChR binding sites; zona incerta", "result": 17.6, "unit": "%"}, {"measurement": "Ki", "setting": "α7-nAChR", "result": "0.93 ± 0.1", "unit": "µM"}]}]}
